These results are taken from US20230248036A1, “FLAVOUR ADDITIVES” (MARS, INCORPORATED, priority 2012, published 2023).

The subject of assay [1] is T1R1/T1R3 receptor (umami receptor). Description: In vitro screening for binding and activation of the umami receptor. Type of assay: biochemical. The note with it: in vitro assays using a non-human umami receptor (with in silico modelling); screening in the presence of 0.2 mM IMP. How it is done:
In vitro screening was carried out in order to establish which first amino acids bind and activate the umami receptor.
In vitro screening was carried out in order to establish which second amino acids bind and activate the umami receptor.

A further assay has as its system feline umami receptor. Description: Ligand binding of the feline umami receptor. The note with it: natural ligands of the human T1R1/T1R3 receptor. An excerpt: As mentioned above, in addition to in silico modelling of the feline umami receptor, sequence alignments of the human, cat and dog receptors have been performed. […] Therefore, due to these significant differences, it would not be expected by the skilled person that compounds that are known to bind to the human receptor would affect the umami receptor of other animals as described herein.

As to `N[C@@H](Cc1c[nH]cn1)C(=O)O` [histidine], the “Ability to bind to and activate the umami receptor” value (“Ability to bind” for short) in assay [1] was “able to bind to and activate”.
With `N[C@@H](CCC(=O)O)C(=O)O` [glutamate], the “Binding to the feline umami receptor” value in the assay on feline umami receptor is “does not bind”.
Consider `NCC(=O)O` [glycine], for which, in assay [1], the “Ability to bind” value is “able to bind to and activate”.
Take `C[C@@H](O)[C@H](N)C(=O)O` [threonine]: the “Ability to bind” value in assay [1] is on record as “do not activate”.
